From ChEMBL document CHEMBL2146425, “Solid-phase synthesis and biological evaluation of Joro spider toxin-4 from Nephila clavata” (J Nat Prod, 2011)
pIC50: −log10 of the molar value.

Assays:
[1] = biological target: Glutamate NMDA receptor; Grin1/Grin2a (Rattus norvegicus, UniProt P35439+Q00959); assay: Inhibition of rat GluN1/2A expressed in xenopus laevis oocytes assessed as inhibition of glycine-evoked current at membrane potential of -60 mV by voltage-clamp electrophysiology; format: cell-based, Oocyte
Glutamate receptor 1 = Glutamate receptor 1 (Rattus norvegicus, UniProt P19490); assay: Inhibition of rat GluA1 expressed in xenopus laevis oocytes assessed as inhibition of glutamate-evoked current at membrane potential of -60 mV by voltage-clamp electrophysiology; format: cell-based, Oocyte
Chain of Glutamate receptor 1 (P19490 whole entry): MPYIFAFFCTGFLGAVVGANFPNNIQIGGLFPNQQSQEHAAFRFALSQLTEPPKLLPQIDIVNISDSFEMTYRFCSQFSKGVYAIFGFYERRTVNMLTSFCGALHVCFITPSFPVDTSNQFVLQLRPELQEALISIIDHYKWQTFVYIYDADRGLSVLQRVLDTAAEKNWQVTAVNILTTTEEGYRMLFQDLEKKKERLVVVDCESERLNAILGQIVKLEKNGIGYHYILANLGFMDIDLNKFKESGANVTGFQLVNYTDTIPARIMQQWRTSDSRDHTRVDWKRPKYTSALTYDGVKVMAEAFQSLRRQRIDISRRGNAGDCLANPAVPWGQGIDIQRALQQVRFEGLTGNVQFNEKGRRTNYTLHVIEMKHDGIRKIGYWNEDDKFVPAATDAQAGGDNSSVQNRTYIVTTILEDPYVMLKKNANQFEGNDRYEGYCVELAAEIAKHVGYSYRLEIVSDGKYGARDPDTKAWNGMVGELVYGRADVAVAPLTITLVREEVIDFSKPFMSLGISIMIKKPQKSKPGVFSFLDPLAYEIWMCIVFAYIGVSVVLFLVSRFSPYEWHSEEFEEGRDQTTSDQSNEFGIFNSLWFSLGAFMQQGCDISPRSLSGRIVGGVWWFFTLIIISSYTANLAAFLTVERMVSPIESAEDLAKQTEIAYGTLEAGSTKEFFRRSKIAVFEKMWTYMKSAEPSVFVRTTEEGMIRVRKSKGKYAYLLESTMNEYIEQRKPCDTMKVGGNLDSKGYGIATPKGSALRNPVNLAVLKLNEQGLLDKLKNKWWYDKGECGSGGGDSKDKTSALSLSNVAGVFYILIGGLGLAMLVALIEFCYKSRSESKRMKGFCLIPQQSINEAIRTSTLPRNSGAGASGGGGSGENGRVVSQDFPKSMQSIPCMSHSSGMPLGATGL

[2] = biological target: Glutamate receptor 1 (Rattus norvegicus) (UniProt P19490); assay: Inhibition of rat GluA1 expressed in xenopus laevis oocytes assessed as inhibition of glutamate-evoked current at membrane potential of -60 mV at 100 uM by voltage-clamp electrophysiology; format: cell-based; conditions: Oocyte
Chain of Glutamate receptor 1 (Rattus norvegicus) (P19490 whole entry): as above

[3] = biological target: Glutamate NMDA receptor; Grin1/Grin2a (Rattus norvegicus) (UniProt P35439+Q00959); assay: Inhibition of rat GluN1/2A expressed in xenopus laevis oocytes assessed as inhibition of glycine-evoked current at membrane potential of -60 mV at 100 uM by voltage-clamp electrophysiology; format: cell-based; conditions: Oocyte

`N=C(N)NCCC[C@H](N)C(=O)NCCCNCCCNCCCCCNC(=O)[C@H](CC(N)=O)NC(=O)Cc1ccc(O)cc1O` showed a pIC50 [1] of 7.13 and a pIC50 (Glutamate receptor 1) of 7.11.

Compound `N=C(N)NCCC[C@H](N)C(=O)N[C@@H](CCCN)C(=O)NCCCCCNC(=O)[C@H](CC(N)=O)NC(=O)Cc1ccc(O)cc1O` has an inhibition [2] of 25% and an inhibition [3] of 25%.
